Results reported in article PMC11363342 (ACS Central Science, 2024).
Like-named read-outs stand apart in the source and are kept apart here.

Key:
[1] = tested on: SARS-CoV-2; assay: microbe, parasite or virus in culture; assay type: cell-based
[2] = tested on: SARS-CoV-2; assay type: cell-based
[3] = tested on: SARS-CoV-2; assay: Viral load reduction assay in ALI-PBEC; assay type: cell-based; conditions: 48 hpi
Method: Thus, ALI-PBEC cells were infected with SARS-CoV-2 (10^5 PFU per insert; estimated MOI ∼0.1) and treated with compounds on the apical side of the cells for 2 h. For uninfected controls, PBS was used instead of virus. The compounds were also present in the basal medium during the whole experiment until 48 hpi, when samples were harvested. […] (Figure 4D).
ALI-PBEC were pretreated with compound in the basal medium for 3 h. Cells were infected with 100 000 PFU of SARS-CoV-2/Leiden0008 per insert (estimated MOI 0.1) with compounds present in the inoculum. After 2 h at 37 °C on a rocking platform, the inoculum was removed and cells were washed three times with warm PBS. Compounds stayed present in the basal medium until 48 h postinfection. At 48 hpi the viral load was determined by plaque assay on a 200 μL apical wash (PBS incubated on the apical side of the insets for 10 min at 37 °C). For assessing cytotoxicity with the CyQuant LDH cytotoxicity assay (Thermo Fisher Scientific), 10 μL of apical wash was diluted 5 times with 40 μL of PBS. A 25 μL volume of this dilution was added to 25 μL of assay reagent and incubated for 30 min at RT in the dark. The plate was fixed and measured at a wavelength of 490 nm (Envision reader, PerkinElmer). For the activity-based probe labeling, the insets were washed one more time with PBS and processed as described previously.[52] Briefly, cells were lysed with 60 μL of potassium phosphate buffer per insert. A fluorescently labeled probe (JJB383) was diluted in MclIvaine buffer (pH 7) to a 10 μM stock and incubated for 5 min on ice. For labeling of the cell lysate, 10 μL of lysate was added to 10 μL of MclIvaine buffer and 5 μL of probe. The lysate was incubated for 30 min at 37 °C before the addition of 10 μL of Laemmli sample buffer (4×). Samples were heated at 95 °C for 5 min and separated in a 10% SDS-PAGE gel. Fluorescence was measured at a wavelength of 625 nm (Cy5) with a Uvitec Alliance Q9 imager (BioSPX). After imaging, the gels were stained with GelCode Blue stain reagent (Thermo Fisher Scientific) and visualized using a Uvitec Essential V6 system to check for equal loading.

[4] = tested on: GBA3; conditions: cited from earlier work
[5] = in vitro; conditions: African green monkey
[6] = tested on: GBA1; conditions: cited from earlier work
[7] = tested on: GBA2; conditions: cited from earlier work
[8] = tested on: recombinant Mus musculus α-Glu II; assay: Thermal shift assay (SYPRO orange); assay type: binding; conditions: 10 μM Mmα-Glu-II with 50 μM inhibitor; unliganded control 49.9 °C
[9] = tested on: SARS-CoV-2; assay: Plaque reduction assay on H1299/ACE2 cells (time of treatment); assay type: cell-based; conditions: H1299/ACE2; compound 11 at 5 μM
Method: To evaluate whether compound 11 has an effect on host proteins (for instance, ACE2) involved in viral entry, we treated monolayers of H1299/ACE2 cells with compound 11 either 48 or 2 h before infection, during infection (0–1 h), or starting from 1 h postinfection (hpi). The cell monolayers were infected with ∼20 PFU of SARS-CoV-2, and after 1 h the inoculum was replaced with an overlay. In one well (Post Infection) the overlay contained compound 11. Remdesivir, a viral RNA synthesis inhibitor, was added to the overlay of another well, as a positive control for blocking virus replication in the cell.
H1299/ACE2 cells were seeded in a 6-well plate at a density of 1.3 × 10^5 cells/well (20% confluency), 96 h prior to infection. […] The monolayers were infected with ∼20 PFU of SARS-CoV-2/Leiden0008. In the postinfection treatment, the compound (or RDV) was added to the Avicel overlay. Cells were incubated for 4 days at 37 °C before fixation and crystal violet staining.

[10] = tested on: SARS-CoV-2; assay: CPE reduction assay on H1299/ACE2 lung epithelial cells; assay type: cell-based; conditions: compared with Vero E6
[11] = tested on: HCoV-229E; assay type: cell-based
[12] = Severe acute respiratory syndrome coronavirus 2, Vero C1008, Vero E6 cells, SARS-CoV-2/Leiden0002, n = 3, mean ± SEM, read-out: EC50 (μM), SARS-CoV-2 CPE reduction
[13] = Severe acute respiratory syndrome coronavirus 2, Vero C1008, read-out: EC50 (μM), SARS-CoV-2 CPE reduction

Compound	EC50 [1, 12] [µM]	CC50 at 3 days [5] [µM]	also measured
CCCCN1C[C@H](O)[C@@H](O)[C@H](O)[C@H]1CO [Compound 1, N-butyl-DNJ, reference compound]	114 ± 10.3	> 200	EC50 ([1]; Vero E6 cells, SARS-CoV-2/Leiden0002, n = 3, mean ± SEM, read-out: EC50 (μM), SARS-CoV-2 CPE reduction): > 100 µM; reduction of infectious progeny production (in words) [2]: only minimally; viral load in ALI-PBEC (in words) ([3]; 100 μM (highest concentration)): only a slight effect; inhibition of GBA3 [4]: inhibits
CO[C@H]1[C@H](O)[C@@H](CO)[C@@H]2OS(=O)(=O)O[C@@H]2[C@@H]1O [Compound 13]	> 200	> 200	–
CCCCN1[C@@H]2[C@@H](O)[C@H](O)[C@@H](CO)C[C@@H]21 (some centres unmarked) [Compound 26]	–	> 200	EC50 [1, 13]: 91.4 ± 20.6 µM
OC[C@H]1C[C@H]2[C@@H]([C@@H](O)[C@@H]1O)N2CCCCCOCc1ccc(-c2ccccc2)cc1 (some centres unmarked) [Compound 24]	–	200	EC50 [1, 13]: 28.6 ± 0.21 µM
O=S1(=O)N[C@@H]2[C@H](O)[C@@H](O)[C@H](O)[C@@H](CO)[C@@H]2O1 [Compound 18]	> 100	> 200	–
OC[C@H]1C[C@H]2[C@@H]([C@@H](O)[C@@H]1O)N2CCCCCOCC12CC3CC(CC(C3)C1)C2 (some centres unmarked) [Compound 27]	–	100	EC50 [1, 13]: 26.9 ± 1.3 µM
OC[C@@H]1[C@@H](O)[C@H](O)[C@@H](O)CN1CCCCCOCc1cc2ccccc2c2ccccc12 [Compound 3]	3.25 ± 0.42	–	CC50 [5]: 50 µM
OC[C@@H]1[C@@H](O)[C@H](O)[C@@H](O)[C@H]2O[C@@H]12 [Compound 9, 1,6-epi-cyclophellitol]	> 200	> 200	inhibition of GBA1 [6]: partially inhibit; inhibition of GBA2 [7]: partially inhibit
COC[C@@H]1[C@@H](O)[C@H](O)[C@@H](O)[C@H]2OS(=O)(=O)O[C@@H]12 [Compound 15]	> 100	> 200	–
OC[C@H]1[C@@H](O)[C@H](O)[C@@H](O)CN1CCCCCOCC12CC3CC(CC(C3)C1)C2 [Compound 8]	104 ± 12.4	> 200	–
CO[C@@H]1[C@@H](O)[C@H](O)[C@@H](CO)[C@@H]2OS(=O)(=O)O[C@H]12 [Compound 12]	> 200	> 200	–
OC[C@@H]1[C@@H](O)[C@H](O)[C@@H](O)[C@H]2N[C@@H]12 [Compound 10, 1,6-epi-cyclophellitol aziridine]	14 ± 3.2	> 200	inhibition of GBA1 [6]: partially inhibit; inhibition of GBA2 [7]: partially inhibit
O=S1(=O)N[C@H]2[C@H](CO)[C@@H](O)[C@H](O)[C@@H](O)[C@H]2O1 [Compound 17]	45.3 ± 1.52	> 200	–
CO[C@H]1[C@H]2OS(=O)(=O)O[C@H]2[C@H](CO)[C@@H](O)[C@@H]1OC [Compound 16]	> 200	> 200	–
O=S1(=O)N[C@@H]2[C@H](O)[C@@H](O)[C@H](O)[C@@H](CO)[C@@H]2N1 [Compound 19]	> 200	> 200	–
OC[C@H]1C[C@@H]2N[C@@H]2[C@@H](O)[C@@H]1O [Compound 21]	–	> 200	EC50 [1, 13]: 67.6 ± 14.8 µM; Tm/°C [8]: 49.5 °C
OC[C@@H]1[C@@H](O)[C@H](O)[C@@H](O)CN1CCCCCOCC12CC3CC(CC(C3)C1)C2 [Compound 5]	13.9 ± 8	200	–
OC[C@@H]1[C@@H](O)[C@H](O)[C@@H](O)CN1CCCCCOCC1CCCO1 (some centres unmarked) [Compound 4]	51.7 ± 3.37	> 200	–
OC[C@H]1C[C@H]2[C@@H]([C@@H](O)[C@@H]1O)N2CCCCCOCc1cccc2ccccc12 (some centres unmarked) [Compound 28]	–	> 200	EC50 [1, 13]: 56.7 ± 1.38 µM
CO[C@H]1[C@H](O)[C@@H](O)[C@H]2OS(=O)(=O)O[C@H]2[C@@H]1CO [Compound 14]	16.9 ± 2.1	> 200	–
CCC(CC)COC(=O)[C@H](C)N[P@](=O)(OC[C@H]1O[C@@](C#N)(c2ccc3c(N)ncnn23)[C@H](O)[C@@H]1O)Oc1ccccc1 [remdesivir, reference compound]	–	–	plaque formation, treatment after infection (in the overlay) [9]: prevented the formation of plaques
OC[C@H]1C[C@H]2[C@@H]([C@@H](O)[C@@H]1O)N2CCCCCOCc1ccc2ccccc2c1 (some centres unmarked) [Compound 23]	–	> 200	EC50 [1, 13]: 64.9 ± 0.77 µM
COCCCCCCCCCN1C[C@H](O)[C@@H](O)[C@H](O)[C@H]1CO [UV-4, reference compound]	–	–	EC50 values in CPE reduction assay (in words) [10]: comparable EC50 values
CCCCCCOCCCCCN1C[C@H](O)[C@@H](O)[C@H](O)[C@H]1CO [Compound 6]	11.8 ± 0.8	> 200	–
O=S1(=O)O[C@@H]2[C@@H](O)[C@H](O)[C@@H](CO)C[C@@H]2O1 [Compound 22]	> 200	> 200	Tm/°C [8]: 51.7 °C
CCCC(=O)N1[C@@H]2[C@@H](O)[C@H](O)[C@@H](CO)C[C@@H]21 [Compound 25]	22.2 ± 4.12	> 200	–
CC(C)(C)COCCCCCN1C[C@H](O)[C@@H](O)[C@H](O)[C@H]1CO [Compound 7]	22.7 ± 4.3	> 200	–
OC[C@@H]1[C@@H](O)[C@H](O)[C@@H](O)CN1CCCCCOCc1ccc2ccccc2c1 [Compound 2, naphthyl-deoxynojirimycin]	6 ± 0.4	> 200	Tm/°C [8]: 63.5 °C; virus infectivity of HCoV-229E (in words) [11]: did not show any reduction in virus infectivity; viral load in ALI-PBEC (in words) ([3]; 10 and 100 μM): reduced SARS-CoV-2 to similar titers; EC50 values in CPE reduction assay (in words) [10]: comparable EC50 values
OC[C@H]1C[C@@H]2O[C@@H]2[C@@H](O)[C@@H]1O [Compound 20]	17.7 ± 1.28	> 200	Tm/°C [8]: 64.7 °C
